Broadly, the IC50 is the concentration that inhibits the measured activity by half. A lower IC50 goes with greater potency in that assay.

Assay in all cases: In vitro enzyme inhibition, 33P-ATP filter kinase assay (Reaction Biology)
Holding throughout (type): biochemical

One assay addresses T1, TYK2 kinase (Homo sapiens, UniProt P29597).
T1 construct: 833-1187; GST (N); purchased Reaction Biology Corp. (contract assay); host or cells: Baculovirus in Sf21 insect cells
As to the method:
(§1) Compounds of the invention were assayed for their ability to inhibit TYK2 kinase and other JAK kinases.
(§2) Substrates and kinases used in the assays are identified in Table 2 below.
(§3) JAK3tide=[Ac-[…]-NH2]

The next assay has as its target T2, JAK3 (Homo sapiens, UniProt P52333).
T2 construct: 781-1124; GST (N); purchased Reaction Biology Corp. (contract assay); host or cells: Baculovirus in Sf21 insect cells
The method, then: as §1, §2, §3

A further assay deals with T3, JAK1 (Homo sapiens, UniProt P23458).
T3 construct: 866-1154; GST (N); purchased Reaction Biology Corp. (contract assay); host or cells: Baculovirus in Sf21 insect cells
The method, then: as §1, §2, §3

The target of a further assay is T4, JAK2 (Homo sapiens, UniProt O60674).
T4 construct: 809-1132; GST (N); '+g'; purchased Reaction Biology Corp. (contract assay); host or cells: Baculovirus in Sf21 insect cells
As to the method: as §1, §2

T4 sequence (O60674 809-1132): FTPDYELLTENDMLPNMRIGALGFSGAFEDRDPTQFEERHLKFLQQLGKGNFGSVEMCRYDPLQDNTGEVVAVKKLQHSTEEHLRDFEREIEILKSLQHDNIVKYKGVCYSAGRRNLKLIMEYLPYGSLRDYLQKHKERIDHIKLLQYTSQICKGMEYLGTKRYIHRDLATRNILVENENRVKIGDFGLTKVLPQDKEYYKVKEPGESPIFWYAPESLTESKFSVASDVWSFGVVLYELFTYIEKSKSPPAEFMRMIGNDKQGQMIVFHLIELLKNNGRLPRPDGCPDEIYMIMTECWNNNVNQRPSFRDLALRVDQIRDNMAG
T3 sequence (P23458 866-1154): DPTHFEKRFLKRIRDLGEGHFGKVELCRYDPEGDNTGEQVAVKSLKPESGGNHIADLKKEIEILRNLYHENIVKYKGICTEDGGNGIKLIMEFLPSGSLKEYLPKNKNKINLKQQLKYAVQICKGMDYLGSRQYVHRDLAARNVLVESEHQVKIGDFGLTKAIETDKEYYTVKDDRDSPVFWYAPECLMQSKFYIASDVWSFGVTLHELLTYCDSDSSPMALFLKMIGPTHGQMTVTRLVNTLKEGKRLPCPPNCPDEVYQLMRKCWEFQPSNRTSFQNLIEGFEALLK
T2 sequence (P52333 781-1124): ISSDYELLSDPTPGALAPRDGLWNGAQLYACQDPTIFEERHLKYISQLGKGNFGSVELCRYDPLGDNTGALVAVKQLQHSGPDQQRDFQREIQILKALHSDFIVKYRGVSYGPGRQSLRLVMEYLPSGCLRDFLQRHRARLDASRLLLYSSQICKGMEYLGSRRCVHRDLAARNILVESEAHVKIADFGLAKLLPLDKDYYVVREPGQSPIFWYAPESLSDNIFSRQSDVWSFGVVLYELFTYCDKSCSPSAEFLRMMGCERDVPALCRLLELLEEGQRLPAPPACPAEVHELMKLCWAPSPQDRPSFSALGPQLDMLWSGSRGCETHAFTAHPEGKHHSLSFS
T1 sequence (P29597 833-1187): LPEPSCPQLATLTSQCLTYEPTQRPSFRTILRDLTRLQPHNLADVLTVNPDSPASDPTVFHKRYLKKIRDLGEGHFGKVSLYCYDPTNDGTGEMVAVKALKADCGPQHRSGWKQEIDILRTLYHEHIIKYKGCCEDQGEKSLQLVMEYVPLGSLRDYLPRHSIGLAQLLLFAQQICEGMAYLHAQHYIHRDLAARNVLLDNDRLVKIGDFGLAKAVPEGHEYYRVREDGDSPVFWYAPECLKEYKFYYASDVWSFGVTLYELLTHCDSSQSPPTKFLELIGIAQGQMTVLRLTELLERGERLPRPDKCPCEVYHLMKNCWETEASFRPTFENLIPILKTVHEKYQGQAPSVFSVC

Consider `NC(=O)c1nc(-c2c(F)cccc2Cl)oc1Nc1ccc(C(=O)N[C@H]2CCCNC2)cc1` [Compound 23, (S) 2-(2-chloro-6-fluoro-phenyl)-5-[4-(piperidin-3-ylcarbamoyl)-phenylamino]-oxazole-4-carboxylic acid amide], for which the concentration for half-maximal inhibition (IC50) on TYK2 kinase worked out at 1.89 nM; against JAK3 it was 240 nM; against JAK1, 63.3 nM; at JAK2, 61.9 nM.

In the case of `NC(=O)c1nc(-c2c(F)cccc2Cl)oc1Nc1ccc(C(=O)N[C@@H]2CCCNC2)cc1` [Compound 24, (R) 2-(2-chloro-6-fluoro-phenyl)-5-[4-(piperidin-3-ylcarbamoyl)-phenylamino]-oxazole-4-carboxylic acid amide], the half-maximal inhibitory concentration (IC50) turned out to be 5.11 nM against TYK2 kinase, 167 nM at JAK3, 157 nM at JAK1 and 125 nM against JAK2.

As for `CN1CCC(NC(=O)c2ccc(Nc3oc(-c4c(F)cccc4Cl)nc3C(N)=O)cc2)CC1` [Compound 26, 2-(2-chloro-6-fluoro-phenyl)-5-[4-(1-methyl-piperidin-4-ylcarbamoyl)-phenylamino]-oxazole-4-carboxylic acid amide], the 50% inhibitory concentration (IC50) worked out at 2.98 nM at TYK2 kinase, 132 nM against JAK3, 100 nM on JAK1 and 87.8 nM against JAK2.

For `NC(=O)c1nc(-c2c(Cl)cccc2Cl)oc1Nc1ccc(C(=O)N[C@H]2CCCNC2)cc1` [Compound 27, (S) 2-(2,6-dichloro-phenyl)-5-[4-(piperidin-3-ylcarbamoyl)-phenylamino]-oxazole-4-carboxylic acid amide], the IC50 was found to be 1.21 nM on TYK2 kinase, 233 nM against JAK3, 72.2 nM against JAK1 and 93.3 nM on JAK2.

Consider `NC(=O)c1nc(-c2c(Cl)cccc2Cl)oc1Nc1ccc(C(=O)N[C@@H]2CCCNC2)cc1` [Compound 28, (R) 2-(2,6-dichloro-phenyl)-5-[4-(piperidin-3-ylcarbamoyl)-phenylamino]-oxazole-4-carboxylic acid amide], for which the IC50 is 1.77 nM on TYK2 kinase, 194 nM at JAK3, 108 nM against JAK1 and 122 nM at JAK2.

`CN1CCC(NC(=O)c2ccc(Nc3oc(-c4c(Cl)cccc4Cl)nc3C(N)=O)cc2)CC1` [Compound 30, 2-(2,6-dichloro-phenyl)-5-[4-(1-methyl-piperidin-4-ylcarbamoyl)-phenylamino]-oxazole-4-carboxylic acid amide]: the half-inhibitory concentration (IC50) was found to be 1.52 nM on TYK2 kinase, 164 nM against JAK3, 83.4 nM at JAK1 and 106 nM against JAK2.

`CCS(=O)(=O)c1ccc(Nc2oc(-c3c(F)cccc3F)nc2C(N)=O)cc1` [Compound 31, 2-(2,6-difluoro-phenyl)-5-(4-ethanesulfonyl-phenylamino)-oxazole-4-carboxylic acid amide]: the IC50 on TYK2 kinase is 4.41 nM; on JAK3 it was 390 nM; against JAK1 it was 222 nM; at JAK2, 213 nM.

Turning to `CC(C)S(=O)(=O)c1ccc(Nc2oc(-c3c(F)cccc3F)nc2C(N)=O)cc1` [Compound 33], the IC50 is 5.47 nM against TYK2 kinase, 516 nM on JAK3, 135 nM on JAK1 and 153 nM at JAK2.

These data come from patent US20210401809A1, “PHARMACEUTICAL COMPOUNDS” (Sareum Limited, priority 2016, published 2021).
